Laboratory results reported in article PMC10914731, “Homo-BacPROTAC-induced degradation of ClpC1 as a strategy against drug-resistant mycobacteria” (Nature Communications, 2024).
Values after ≈ are worked out from the molar mass of the structure shown. Values joined by “and” are separate entries in the source; they are usually repeats but may differ in a detail not shown here. Equal values may be shown once. Read-outs that look alike come from different tables or passages of the source.

Experiments:
Mycobacterium abscessus = assay: microbe, parasite or virus in culture; format: cell-based
Mycobacterium fortuitum = assay: microbe, parasite or virus in culture; format: cell-based
Mtb # 8673 = assay: microbe, parasite or virus in culture; format: cell-based
Mtb ATCC 35825 = assay: microbe, parasite or virus in culture; format: cell-based
[1] = tested on: Mycobacterium intracellulare; assay: microbe, parasite or virus in culture; format: cell-based
Mycobacterium avium = assay: microbe, parasite or virus in culture; format: cell-based
Mtb # 11291 = assay: microbe, parasite or virus in culture; format: cell-based; conditions: for MIC: read-out: MIC Mtb # 11291
[2] = biological target: ClpC1 NTD protein (M. tuberculosis) (Mycobacterium tuberculosis, UniProt P9WPC9); assay: biochemical; format: binding; conditions: SPR
ClpC1 NTD protein (M. tuberculosis), sequence (P9WPC9 1-156, looked up, natural form): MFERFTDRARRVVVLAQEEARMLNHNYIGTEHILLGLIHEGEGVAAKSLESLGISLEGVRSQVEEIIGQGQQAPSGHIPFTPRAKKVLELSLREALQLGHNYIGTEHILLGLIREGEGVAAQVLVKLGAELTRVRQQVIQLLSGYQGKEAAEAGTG

Msm 607 = assay: microbe, parasite or virus in culture; format: cell-based; conditions: Mycolicibacterium smegmatis, 607, read-out: MIC Msm 607
Msm 700084 = assay: microbe, parasite or virus in culture; format: cell-based
[3] = tested on: M. tuberculosis H37Rv (ATCC 27294); assay: microbe, parasite or virus in culture; format: cell-based
[4] = format: in vitro ADME, Human; conditions: clearance in hepatocytes
[5] = format: in vitro ADME, Rat
in vitro = conditions: human; for Papp B→A: basolateral to apical
Method in brief: (§1)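 Values are bidirectional Caco-2 apparent permeabilities, P(A−B) and P(B−A), given in 10^-6 cm s-1. The efflux ratio divides P(B−A) by P(A−B), and intrinsic permeability averages the two directions.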

Caco-2 monolayers = assay: in vitro
Method in brief: as §1

[6] = Hepatocyte stability, mice; format: in vitro ADME; conditions: clearance in hepatocytes
Method in brief: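 Cryopreserved mouse hepatocytes (about 1 million cells/mL, pH 7.4, 50% species serum) incubated with 1 µM compound, DMSO <0.05%, at 37 °C for up to 6 h, sampled at 6 time points. Parent remaining measured by HPLC-MS/MS; half-life converted via well-stirred liver model to clearance as % Qh.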

[7] = Experiment 2, three replicate columns
[8] = Mycobacterium tuberculosis, mean, n = 2 well replicates
[9] = Mycobacterium tuberculosis, single well replicates

NCC[C@H](O)C(=O)N[C@@H]1C[C@H](N)[C@@H](O[C@H]2O[C@H](CN)[C@@H](O)[C@H](O)[C@H]2O)[C@H](O)[C@H]1O[C@H]1O[C@H](CO)[C@@H](O)[C@H](N)[C@H]1O [Amikacin, reference compound]
MIC (µg/ml) Mycobacterium abscessus (Mycobacterium abscessus; [7]): 2 µg/mL (≈ 3.42 µM) | MIC (Mycobacterium abscessus; Experiment 2, three replicate columns, read-out: MIC (µM) Mycobacterium abscessus): 3.42 µM | MIC (Mycobacterium abscessus; Mycobacteroides abscessus, Experiment 2, three replicate columns, read-out: MIC (µM) Mycobacterium abscessus): 3.42 µM | MIC (Mycobacterium abscessus; Mycobacteroides abscessus, Experiment 2, three replicate columns, read-out: MIC (µg/ml) Mycobacterium abscessus): 2 µg/mL | MIC (Mycobacterium abscessus; Mycobacteroides abscessus, mean ± SD, read-out: MIC Mycobacterium abscessus): 3.4 µM | MIC (µg/ml) Mycobacterium fortuitum (Mycobacterium fortuitum; [7]): 0.25 µg/mL (≈ 0.427 µM) | MIC (Mycobacterium fortuitum; Experiment 2, three replicate columns, read-out: MIC (µM) Mycobacterium fortuitum): 0.43 µM | MIC (Mycobacterium fortuitum; Mycolicibacterium fortuitum, Experiment 2, three replicate columns, read-out: MIC (µM) Mycobacterium fortuitum): 0.43 µM | MIC (Mycobacterium fortuitum; Mycolicibacterium fortuitum, Experiment 2, three replicate columns, read-out: MIC (µg/ml) Mycobacterium fortuitum): 0.25 µg/mL | MIC (Mycobacterium fortuitum; Mycolicibacterium fortuitum, mean ± SD, read-out: MIC Mycobacterium fortuitum): 0.4 µM | MIC (Mtb # 8673; [8]): > 219 µM and > 128 µg/mL | MIC (Mtb # 8673; [9]): > 219 µM and > 128 µg/mL | MIC (Mtb # 8673; single well replicates): >218.58 µM | MIC Mtb # 8673 (Mtb # 8673; single well replicates): >128 µg/mL | MIC (Mtb ATCC 35825; Mycobacterium tuberculosis, ATCC35825, mean, n = 2 well replicates): 0.1 µM and 0.03 µg/mL | MIC (Mtb ATCC 35825; Mycobacterium tuberculosis, ATCC35825, single well replicates): 0.03 µg/mL and 0.05 µM | MIC (Mtb ATCC 35825; single well replicates): 0.05 µM (≈ 0.0293 µg/mL) | MIC Mtb ATCC 35825 (Mtb ATCC 35825; single well replicates): 0.03 µg/mL (≈ 0.0512 µM) | MIC (µg/ml) Mycobacterium intracellulare [1, 7]: 0.50 µg/mL (≈ 0.854 µM) | MIC ([1]; Experiment 2, three replicate columns, read-out: MIC (µM) Mycobacterium intracellulare): 0.85 µM | MIC ([1]; Mycobacterium intracellulare, Experiment 2, three replicate columns, read-out: MIC (µM) Mycobacterium intracellulare): 0.85 µM | MIC ([1]; Mycobacterium intracellulare, Experiment 2, three replicate columns, read-out: MIC (µg/ml) Mycobacterium intracellulare): 0.5 µg/mL | MIC ([1]; Mycobacterium intracellulare, mean ± SD, read-out: MIC Mycobacterium intracellulare): 0.9 µM | MIC (µg/ml) Mycobacterium avium (Mycobacterium avium; [7]): 1 µg/mL (≈ 1.71 µM) | MIC (Mycobacterium avium; Experiment 2, three replicate columns, read-out: MIC (µM) Mycobacterium avium): 1.71 µM | MIC (Mycobacterium avium; Mycobacterium avium, Experiment 2, three replicate columns, read-out: MIC (µM) Mycobacterium avium): 1.71 µM | MIC (Mycobacterium avium; Mycobacterium avium, Experiment 2, three replicate columns, read-out: MIC (µg/ml) Mycobacterium avium): 1 µg/mL | MIC (Mycobacterium avium; Mycobacterium avium, mean ± SD, read-out: MIC Mycobacterium avium): 1.7 µM | MIC (Mtb # 11291; [8]): 3.4 µM and 2 µg/mL | MIC (Mtb # 11291; [9]): 3.42 µM and 2 µg/mL | MIC Mtb # 11291 (Mtb # 11291; single well replicates): 2 µg/mL (≈ 3.42 µM) | MIC (Mtb # 11291; single well replicates): 3.42 µM (≈ 2 µg/mL)

CO[C@H](c1ccccc1)[C@@H]1NC(=O)[C@H](C)NC(=O)[C@H](C[C@@H](C)CO)N(C)C(=O)[C@H](Cc2cn(C)c3ccccc23)N(C)C(=O)[C@H](Cc2cn(CCCCCn3cc(C[C@@H]4NC(=O)[C@H](CC(C)C)N(C)C(=O)[C@H](C(C)C)NC(=O)[C@H]([C@H](OC)c5ccccc5)NC(=O)[C@H](C)NC(=O)[C@H](C[C@@H](C)CO)N(C)C(=O)[C@H](Cc5cn(C)c6ccccc56)N(C)C4=O)nn3)nn2)NC(=O)[C@H](CC(C)C)N(C)C(=O)[C@H](C(C)C)NC1=O [Compound 22]
Kd ([2]; individual measurements (source data), read-out: KD ClpC1-NTD): 764 pM and 1130 pM | koff ClpC1-NTD ([2]; single independent measurements): 0.01 s⁻¹ | koff ([2]; single independent measurements, read-out: koff ClpC1-NTD): 0.007 s⁻¹ | Kd ([2]; read-out: ClpC1-NTD KD Mean ± SD): 900 ± 300 pM | MIC (Msm 607): 2.3 ± 1.1 µM (≈ 4.62 µg/mL) | MIC (Msm 700084; Mycolicibacterium smegmatis, 700084, single determinations, read-out: Msm 700084 MIC): > 50 µM | MIC (Msm 700084; Mycolicibacterium smegmatis, 700084, read-out: MIC Msm 700084): > 50 µM | MIC ([3]; Mycobacterium tuberculosis, M. tuberculosis H37Rv strain, read-out: MIC Mtb H37Rv Mean ± SD): 3.1 µM (≈ 6.23 µg/mL) | MIC ([3]; Mycobacterium tuberculosis, Mtb H37Rv (Supplementary Table 2), read-out: MIC Mtb): 3.1 µM (≈ 6.23 µg/mL) | MIC ([3]; Mycobacterium tuberculosis, individual measurements (source data), read-out: Mtb MIC): 3.12 µM (≈ 6.28 µg/mL) | MIC ([3]; Mycobacterium tuberculosis, single determinations, read-out: Mtb MIC): 3.12 µM (≈ 6.28 µg/mL) | MIC ([3]; individual measurements (source data), read-out: Mtb MIC): 3.125 µM (≈ 6.28 µg/mL) | Hepatocyte Human [4]: 12 %Qh | Hepatocyte Stability Rat QH ([5]; Rat): 9.923% | Hepatocyte Rat ([5]; clearance in hepatocytes): 10 %Qh | efflux ratio (in vitro; Caco-2): 0.3 | Papp B→A (in vitro; Caco-2, CACO permeability PEBA): < 0.051 ×10⁻⁶ cm/s | Papp A→B (in vitro; Caco-2, Caco-2 permeability P (A-B), apical to basolateral): 0.5 ×10⁻⁶ cm/s | Papp B→A (in vitro; Caco-2, Caco-2 permeability P (B-A)): 0.2 ×10⁻⁶ cm/s | Permeability Correlation P (A-B) (Caco-2 monolayers; influence of Trp-Nα methylation on P(A-B), matched pair, listed under the methylated partner): 0.7 | Permeability Correlation Ratio (Caco-2 monolayers; influence of Trp-Nα methylation on efflux ratio, matched pair, listed under the methylated partner): 1 | Caco-2 Int. Perm (Caco-2 monolayers; mean value of P(A−B) and P(B−A)): 0.3 10-6 cm s-1 | Hepatocyte Mice [6]: 15 %Qh
